This assay relates to CEM cells HIV-1 protection, formazan growth assay. Description: NCI AIDS Antiviral Assay. The following applies: for IC50: measured here: growth of uninfected CEM cells. The method, boiled down:
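Human CEM cells, uninfected and HIV-1-infected, received five drug concentrations, and growth was read by soluble formazan assay. Compounds giving at least 50% protection were retested; reproducible 100% protection defined confirmed active.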

Several values for one entry are separate records, joined by “and”; a condition that tells them apart may be missing. Identical values can stand only once. Activity calls are given as the source filed them.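 Rule for the calls: active = compounds giving half or more protection of infected cells from virus-caused growth loss, again on retest; inactive = the rest.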 *1 amine or outer side, *2 acyl side, *3 side chain or, on linkers, in order; H or OH if unused. Where a SMILES comes first, the peptide text is derived from it. [ ]: non-standard residue; d: D form. X1 = O=C(C1=CN(Cc2ccccc2)C=CC1N[*:1])[*:2]

Broadly, the EC50 is the concentration needed to bring the measured effect to its halfway point. The IC50 is the midpoint of a concentration-inhibition curve. Read a high IC50 as lower potency.

Consider `N/N=C1\C(=O)N(C2CCCCCC2)C(=O)C1C(=O)NC1CCCCCC1` (stereo not given), for which the EC50 was over 14.5 µM and the half-inhibitory concentration (IC50) is over 14.5 µM.

For the molecule `COC(COC(N)=O)C1=C(N2CC2)C(=O)C(C)=C(N2CC2)C1=O` (stereo not given), the EC50 was over 2 µM and the IC50 stood at 0.0166 µM.

Regarding `CC1(C)CC(=O)c2c(N)n[nH]c2C1`, the EC50 was 11.2 µM and the half-maximal inhibitory concentration (IC50) was over 200 µM.

Regarding `CC(=O)N1CCN(C=S)CC1`, the EC50 was over 1450 µM and the IC50 was over 1450 µM.

For `CC1=C2CC(C)(C)/C=C\C(=O)/C(C)=C\C3=C[C@H](C)C[C@]3(O2)C1=O`, the EC50 is over 0.2 µM and the IC50 is 0.0955 µM.

`CCC[CH2][Sn]1([CH2]CCC)[O]C(=O)c2cc(C)ccc2[O]1`: the EC50 is over 9.33 µM and the IC50 was 3.09 µM.

Turning to `C=CCNC1=C2C[C@@H](C)C[C@@H](OC)C(OC(=O)CCCN(C)C)[C@H](C)/C=C(\C)[C@@H](OC(N)=O)[C@H](OC)/C=C\C=C(/C)C(=O)NC(=CC1=O)C2=O` (stereo not given in full), the EC50 was over 200 µM and the 50% inhibitory concentration (IC50) worked out at 11 µM.

Consider `CN(CCSSCCN(C)C(N)=S)C(N)=S`, for which the EC50 was over 200 µM and the IC50 was over 200 µM.

`Cn1c(-c2ccccc2)c(CCNC(=O)C2CCC2)c2ccccc21`: the EC50 was over 200 µM and the half-inhibitory concentration (IC50) is 31.6 µM.

Regarding `COc1cc2cnc3c4cc(OS(=O)(=O)c5ccccc5)ccc4ccc3c2cc1OC`, the EC50 is over 14.5 µM and the IC50 was over 14.5 µM.

On to `C1=CC2CCC1C1CN(CCCN3CCOCC3)CC21` (stereo not given), for which the EC50 is over 708 µM and the concentration for half-maximal inhibition (IC50) is over 708 µM.

Regarding `O=C1NN(C2=NNC3(C(=O)N2)c2ccccc2-c2ccccc23)C(c2ccccc2)=N/C1=C/c1ccc(O)cc1`, the EC50 was over 100 µM and the IC50 turned out to be 66.1 µM.

On to `Cc1nc2ccccc2c(=O)n1Cc1nc2ccccc2[nH]1`, for which the outcome was inactive.

For the molecule `[C-]#[O+].[C-]#[O+].[C-]#[O+].[Re].c1ccc2c(c1)[cH-]c1ccccc12`, the EC50 was over 1.66 µM and the IC50 is over 1.66 µM.

Regarding `CCCc1nc(NC#N)nc(C(=O)NC23CC4CC(CC(C4)C2)C3)c1C`, the EC50 was over 355 µM and the half-maximal inhibitory concentration (IC50) was over 355 µM.

Turning to `CCCCCCN1CCN(Cc2ccc(N(CC)CC)cc2)C(=O)C1=O`, the EC50 is over 200 µM and the IC50 came to 0.977 µM.

Take `N#Cc1c(-c2ccccc2)ssc1=S`: the EC50 is over 200 µM and the IC50 is 14.1 µM.

Consider `CC(=O)C1=C(C)NC2C=CC=CN12` (stereo not given), for which the EC50 was over 1410 µM and the IC50 was found to be 676 µM.

In the case of `Cc1cccc(C)c1N=Nc1ccc(O)c(CN(C)C)c1`, the EC50 is over 200 µM and the half-inhibitory concentration (IC50) turned out to be 39.8 µM.

For the molecule `CCCCCCCCCCSC(=O)NC`, the result was inactive.

Consider `O=C1CC2(CC=CCC23OCCO3)CC(CI)O1` (stereo not given), for which the EC50 is over 200 µM and the IC50 was over 200 µM.

For the molecule `O=C(CCc1cc(O)cc(O)c1)NCCCNC(=O)CCc1cc(O)cc(O)c1`, the EC50 was over 200 µM and the IC50 was over 200 µM.

On to `O=C1OCC(O)=C1C(c1ccc(Cl)cc1)c1cc2c(cc1O)OCO2` (stereo not given), for which the EC50 was over 200 µM and the concentration for half-maximal inhibition (IC50) is over 200 µM.

Take `CCCc1cc(=O)oc2c3c(cc(OC(C)COC)c12)O[C@H](C)[C@@H](C)C3=O` (stereo not given in full): the EC50 was over 77.6 µM and the IC50 was 13.8 µM.

Regarding `COc1cc(Nc2cnc3cc(N)ccc3n2)cc(OC)c1OC`, the EC50 is over 200 µM and the IC50 was over 200 µM.

For the molecule `CCOC(=O)C(=O)C=P(c1ccccc1)(c1ccccc1)c1ccccc1`, the EC50 was 18.6 µM and the IC50 came to 35.5 µM.

As for `C/C=C/CSc1cc(NC(=S)c2ccsc2C)ccc1Cl`, the concentration giving a half-maximal response (EC50) was 0.263 µM and the IC50 was 12.3 µM.

On to `CCC(C)C(CC)(C(=O)O)C(=O)O` (stereo not given), for which the EC50 is over 1320 µM and the 50% inhibitory concentration (IC50) was determined as 380 µM.

For `COC1/C=C/OC2(C)Oc3c(C)c(O)c4c(O)c(c(C5SCCS5)c(O)c4c3C2=O)NC(=O)/C(C)=C\C=C\C(C)C(O)C(C)C(O)C(C)C(O)C1C` (stereo not given), the EC50 was over 200 µM and the IC50 came out at 1 µM.

Regarding `COc1ccc(C[C@@H]2NC[C@@H](O)[C@@H]2OC(C)=O)cc1`, the EC50 is over 4.17 µM and the concentration for half-maximal inhibition (IC50) came to 0.017 µM.

Consider `CC1NC(=O)C(C(C)C)NC(=O)C2=CN(Cc3ccccc3)C=CC2NC(=O)C(C)NC(=O)C(C(C)C)NC(=O)C2=CN(Cc3ccccc3)C=CC2NC1=O` (stereo not given) (cyclo([X1]VA[X1]VA); configuration not given here), for which the EC50 was over 23.4 µM and the IC50 was over 23.4 µM.

For the molecule `OCC1OC2NC(=S)OC2C1O` (stereo not given), the EC50 was over 200 µM and the IC50 is over 200 µM.

For `O=C(O)c1cc(/C=C/c2ccc(N=Nc3c(O)cc(O)cc3C(=O)O)c(C(=O)O)c2)ccc1N=Nc1c(O)cc(O)cc1C(=O)O`, the EC50 is 16.6 µM and 3.89 µM; the 50% inhibitory concentration (IC50) is > 100 µM and 95.5 µM.

As to `O=C1c2ccccc2CC12CCC1(CC2)OCCO1`, the EC50 was over 200 µM and the IC50 is over 200 µM.

Consider `CC1C(=O)C2CC3(C)CO[C@@]2(C3O)[C@@]2(C)CC[C@@H]12` (stereo not given in full), for which the outcome was inactive.

Turning to `COc1ccc(N2C(=O)C3c4[nH]c5ccc(C)cc5c4C4CCC(c5ccccc5)CC4C3C2=O)cc1` (stereo not given), the outcome was inactive.

Regarding `CC(=O)N(C)c1ccc2ncccc2c1[N+](=O)[O-]`, the EC50 was over 1020 µM and the half-inhibitory concentration (IC50) came out at 562 µM.

Consider `NC(=S)N/N=C/c1cc(CN2CCOCC2)c(N)cn1`, for which the EC50 was over 200 µM and the IC50 worked out at 10.5 µM.

As for `Cn1cc2ccccc2c1-c1nc(F)nc(Oc2ccc3c(c2)CC[C@@H]2C3CC[C@]3(C)C(O)CCC23)n1` (stereo not given in full), the EC50 is over 5.5 µM and the IC50 is over 5.5 µM.

Take `CC[C@]1(Cc2ccc(OC)c(OC)c2)[C@@H]2C[C@@H](C(=O)OC)ON2O[C@H](OC2CCCC2(c2ccccc2)c2ccccc2)[C@@H]1OC(C)=O` (stereo not given in full): the EC50 is over 200 µM and the IC50 amounted to 21.4 µM.

`COCc1cc(=O)oc2c3c(c4c(c12)OC(C)(C)C=C4)O[C@H](C)[C@@H](C)[C@H]3O`: the EC50 was 174 µM and the 50% inhibitory concentration (IC50) came out at 182 µM.

Take `CN(C)Cc1cc(C(=O)/C=C/c2ccc(/C=C/C(=O)c3cc(CN(C)C)c(O)c(CN(C)C)c3)cc2)cc(CN(C)C)c1O`: the EC50 was over 200 µM and the half-maximal inhibitory concentration (IC50) worked out at 10 µM.

Consider `C[C@@H](c1ccccc1)C(CC#N)[C@H]1CCC[C@]1(O)C#Cc1ccc2c(c1)OCO2` (stereo not given in full), for which the EC50 is over 200 µM and the IC50 came out at 11.5 µM.

As for `CC(C)(C)c1ccc(-c2nnc(-c3cc(C#N)cc(-c4nnc(-c5ccc(C(C)(C)C)cc5)o4)c3)o2)cc1`, the EC50 was over 100 µM and the IC50 was over 100 µM.

On to `COc1ccc(/C=c2\sc3nnc(CCC(=O)Nc4cccc(C(F)(F)F)c4)n3c2=O)cc1`, for which the EC50 is over 7.59 µM and the IC50 was over 7.59 µM.

Regarding `C/C(=N/NC(=O)C[n+]1ccccc1)C(CN(CC(C)C)CC(C)C)C(=O)Nc1ccc(C)cc1C` (stereo not given), the EC50 is over 14.1 µM and the concentration for half-maximal inhibition (IC50) was over 14.1 µM.

With `CC(=O)Nc1ccc2c(c1)nc1c3ccccc3ccn21`, the EC50 was over 200 µM and the concentration for half-maximal inhibition (IC50) came to 29.5 µM.

For the molecule `O=c1c2c3c(sc2nc2n1N=CN(c1ccccc1)C2)CCCC3`, the EC50 was over 200 µM and the IC50 was over 200 µM.

Regarding `COC(=O)/C(=N\Nc1nc(=S)[nH]n1N)C(C#N)c1ccccc1` (stereo not given), the EC50 is over 178 µM and the half-inhibitory concentration (IC50) was over 178 µM.

Consider `CCOP(=O)(OCC)C(Nc1ccc(C(=O)O)cc1)c1ccc(C(Nc2ccc(C(=O)O)cc2)P(=O)(OCC)OCC)cc1` (stereo not given), for which the EC50 is over 200 µM and the concentration for half-maximal inhibition (IC50) is over 200 µM.

On to `CN1C(=O)CN(NC(=O)C2=C(O)c3ccc(Br)cc3S(=O)(=O)N2)C1=S`, for which the EC50 is over 200 µM and the half-inhibitory concentration (IC50) is 51.3 µM.

Regarding `Cc1cc(S(=O)(=O)Nc2nnc3c4ccccc4cnn23)c(S)cc1Cl`, the concentration for a half-maximal effect (EC50) is 56.2 µM and the IC50 was 1170 µM.

On to `CC1=C2[C@H](c3ccccc3)C3C=CC2(c2ccccc23)N(C(=O)C(c2ccccc2)c2ccccc2)C1=O` (stereo not given in full), for which the EC50 was over 1.51 µM and the concentration for half-maximal inhibition (IC50) was over 1.51 µM.

In the case of `Cc1cc(-c2cscn2)c(O)c([N+](=O)[O-])c1`, the EC50 is over 200 µM and the IC50 turned out to be 35.5 µM.

`CCOC(=O)C(C)(CCC(C)(C(=O)OCC)C(=O)OCC)C(=O)OCC`: the EC50 is over 200 µM and the half-inhibitory concentration (IC50) was found to be 75.9 µM.

As for `COc1ccc(N2C(=O)/C(=C\c3cccc(Oc4ccccc4)c3)S(=O)(=O)C2c2ccccc2)cc1` (stereo not given), the EC50 is over 200 µM and the 50% inhibitory concentration (IC50) is 28.8 µM.

`COC(=O)C[CH](C(=O)OC)[Ge]([CH3])([CH3])[S]c1ccccc1` (stereo not given): the EC50 was over 100 µM and the IC50 was 18.2 µM.

For `Nc1ncnc2c1ncn2C1OC(CO)CC1F` (stereo not given), the IC50 was > 200 µM and 191 µM.

Regarding `O=S(=O)(O)C1CC2NC3C4CCCC(S(=O)(=O)O)C4C(Nc4ccccc4)CC3N(c3ccccc3)C2CC1Nc1ccccc1` (stereo not given), the half-maximal effective concentration (EC50) was 56.2 µM and the IC50 is over 100 µM.

Consider `N=c1ccn2c(n1)OC1C(OC(=O)C34CC5CC(CC(C5)C3)C4)C(COC(=O)C34CC5CC(CC(C5)C3)C4)OC12` (stereo not given), for which the result was inactive.

Consider `CC(=O)/C(=C/c1ccccc1Cl)C(=O)c1ccccc1`, for which the EC50 is over 91.2 µM and the IC50 was 19.1 µM.

Consider `O=C(O)C12CCCC(CCC1)C2`, for which the result was inactive.

As to `C[C@@H](NS(=O)(=O)c1ccc(NC(=O)c2ccccc2)cc1)C(=O)O`, the outcome was inactive.

In the case of `N#Cc1ccccc1NC(=O)C(=O)C(C(=O)c1ccccc1-c1ccccc1)C1OC(=O)c2ccccc21` (stereo not given), the EC50 was over 52.5 µM and the IC50 was 26.3 µM.

As for `CCOC(=O)C(=O)Nc1ccccc1C(C)C`, the EC50 was over 151 µM and the 50% inhibitory concentration (IC50) is over 151 µM.

As for `CC(C)(C)[Si](C)(C)OCC1OC(n2ccc(=O)[nH]c2=O)/C(=C\C#N)C1O[Si](C)(C)C(C)(C)C` (stereo not given), the EC50 is over 200 µM and the IC50 stood at 35.5 µM.

As for `O=C(c1ccccc1)C(O)(Cc1ccccc1)c1ccccc1` (stereo not given), the EC50 was over 85.1 µM and the IC50 is 70.8 µM.

Consider `O=C1NC(=O)N2CC(CI)OC2C1c1ccccc1` (stereo not given), for which the EC50 is over 97.7 µM and the IC50 was over 97.7 µM.

Turning to `N#CC1(C#N)[C@@H]2CCC=C(Sc3ccccc3)[C@@H]21`, the EC50 is over 200 µM and the IC50 worked out at 9.12 µM.

The record behind these values is PubChem BioAssay AID179 (DTP/NCI, 2004).
